Source: PubChem BioAssay AID1963979 (Molecular Pharmacology Branch, DTP, NCI, 2024)
“And” between values parts separate entries of the source, which are not always exact repeats. Equal values may be shown once.

Test system: 361931-004-R-J1-PDC multicell spheroid viability
Experiment: Anticancer human tumor 361931-004-R-J1-PDC patient-derived colon adenocarcinoma cell line growth inhibition [PI3K]
Settings: for viability, T/C: stronger effect = lower value
Description: Combinatorial screen of targeted agents with the PI3K inhibitors inavolisib, alpelisib, duvelisib, and copanlisib in multi-cell type tumor spheroids
A high-throughput screen of multi-cell type tumor spheroids was designed to identify active combinations of targeted small molecules and PI3K pathway inhibitors. Complex spheroids include a stromal component modeled by human endothelial cells (HUVEC) and fibroblasts modeled by human mesenchymal stem cells (MSCs). The concentration ranges selected for each drug and investigational agent were based upon clinically achievable concentrations if the clinical Cmax of the agent was known.
Compounds. The drugs and investigational agents: inavolisib (NSC800729), alpelisib (NSC765974), duvelisib (NSC772469), copanlisib (NSC816437), ipatasertib (NSC767898), afuresertib (NSC778305), talazoparib (NSC767125), sapanisertib (NSC764658), selumetinib (NSC741078), tovorafenib (DAY101, NSC766906), vemurafenib (NSC761431), ravoxertinib (NSC781343), sotorasib (NSC818433), MRTX1133 (NSC 836407), abemaciclib (NSC 768073), palbociclib (NSC758247), venetoclax (NSC 766270), SY5609 (NSC837396), enzalutamide (NSC755605), and darolutamide (NSC825331), were obtained from the National Cancer Institute (NCI) Developmental Therapeutics Program Chemical Repository. The FDA-approved anticancer drug set is available from the NCI Developmental Therapeutics Program. […] The stock solutions were prepared in dimethyl sulfoxide (DMSO, Sigma-Aldrich, St. Louis, MO, cat. D2650) at 800-fold the tested concentration and stored at -70 degrees C prior to their use. All drugs and investigational agents were tested over a range starting from a high concentration at or near the clinical Cmax and decreasing in half-log increments. If the clinical Cmax for an agent had not been determined, the highest concentration tested was 10 microM.
Cell Culture. All cells were maintained in an incubator at 37 degrees C and 5% CO2 with 95% humidity. The PDC lines were cultured according to standard operating procedures established by the NCI PDMR (https://pdmr.cancer.gov/sops/default.htm). All PDCs were thawed and cultured in Matrigel-coated flasks prepared with a working solution of 1X Ham's F-12 nutrient mix, without supplementation (Invitrogen, Waltham, MA, cat. 11765054), 100 U/mL penicillin-streptomycin (Invitrogen, cat. 15140122), and 2.5% Matrigel (Corning Inc., Corning, NY, cat. 354248) for the first three passages. The 354836-022-R-J1-PDC, 475296-252-R-J1-PDC, and 997726-040-R-J2-PDC lines were cultured in 6A media, which includes advanced DMEM/F-12 (Thermo Fisher Scientific, cat. 12634028), 10 mM HEPES (Thermo Fisher Scientific, cat. 15630080), 1X GlutaMAX supplement (Thermo Fisher Scientific, cat. 35050061), 0.1 mg/mL primocin (InvivoGen, San Diego, CA, cat. ant-pm-2), 10% defined fetal bovine serum, heat inactivated (HyClone Laboratories Inc., Logan, UT, cat. SH30070.03HI), 50% L-WRN conditioned media (ATCC, cat. CRL-3276), 1.25 mM N-Acetyl-L-cysteine (Sigma-Aldrich, cat. A9165), 10 mM nicotinamide (Sigma-Aldrich, cat. N0636), 1X B-27 supplement (Thermo Fisher Scientific, cat. 17504044), 1X N-2 supplement (Thermo Fisher Scientific, cat. 17502048), and 10 microM Y-27632 dihydrochloride (Tocris Bioscience, Bristol, United Kingdom, cat. 1254). The 624824-186-R-J2-PDC line was cultured in 6C/Colon 1B media, which includes all 6A media components plus 50 ng/mL human EGF recombinant protein (Thermo Fisher Scientific, cat. PHG0311). […]

[1] = curve of first compound, second compound 0.0316 µM
[2] = curve of first compound, second compound 0.1 µM
[3] = curve of first compound, second compound 0.316 µM
[4] = curve of first compound, second compound 1 µM
[5] = second compound 0.0316 µM, first compound 0.0316 µM
[6] = second compound 0.0316 µM, first compound 0.1 µM
[7] = second compound 0.0316 µM, first compound 0.316 µM
[8] = second compound 0.0316 µM, first compound 1 µM
[9] = second compound 0.0316 µM, first compound 3.16 µM
[10] = second compound 0.0316 µM, first compound 10 µM
[11] = second compound 0.1 µM, first compound 0.0316 µM
[12] = second compound 0.1 µM, first compound 0.1 µM
[13] = second compound 0.1 µM, first compound 0.316 µM
[14] = second compound 0.1 µM, first compound 1 µM
[15] = second compound 0.1 µM, first compound 3.16 µM
[16] = second compound 0.1 µM, first compound 10 µM
[17] = second compound 0.316 µM, first compound 0.0316 µM
[18] = second compound 0.316 µM, first compound 0.1 µM
[19] = second compound 0.316 µM, first compound 0.316 µM
[20] = second compound 0.316 µM, first compound 1 µM
[21] = second compound 0.316 µM, first compound 3.16 µM
[22] = second compound 0.316 µM, first compound 10 µM
[23] = second compound 1 µM, first compound 0.0316 µM
[24] = second compound 1 µM, first compound 0.1 µM
[25] = second compound 1 µM, first compound 0.316 µM
[26] = second compound 1 µM, first compound 1 µM
[27] = second compound 1 µM, first compound 3.16 µM
[28] = second compound 1 µM, first compound 10 µM
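Note: spheroids exposed to agents for seven days before readout.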

CC1(C)CCC(CN2CCN(c3ccc(C(=O)NS(=O)(=O)c4ccc(NCC5CCOCC5)c([N+](=O)[O-])c4)c(Oc4cnc5[nH]ccc5c4)c3)CC2)=C(c2ccc(Cl)cc2)C1
viability, T/C (compound 0.0316 µM): 100% [middle of 4 runs] | viability, T/C (compound 0.1 µM): 101% [middle of 4 runs] | viability, T/C (compound 0.316 µM): 101% [middle of 4 runs] | viability, T/C (compound 1 µM): 102% [middle of 4 runs] | viability, T/C (compound 10 µM): 3.75% [middle of 4 runs] | IC50 (curve of compound): 4940 nM and 4180 nM and 5610 nM

CC1(C)CCC(CN2CCN(c3ccc(C(=O)NS(=O)(=O)c4ccc(NCC5CCOCC5)c([N+](=O)[O-])c4)c(Oc4cnc5[nH]ccc5c4)c3)CC2)=C(c2ccc(Cl)cc2)C1 + COc1c(OCCCN2CCOCC2)ccc2c3n(c(=NC(=O)c4cnc(N)nc4)nc12)CCN3
IC50 (curve of first compound, second compound 0.00316 µM): 5640 nM | IC50 (curve of first compound, second compound 0.01 µM): 5570 nM | IC50 [1]: 4870 nM | IC50 [2]: 3490 nM | IC50 [3]: 555 nM | IC50 [4]: < 31.6 nM | viability, T/C (second compound 0.00316 µM, first compound 0.0316 µM): 92.3% | viability, T/C (second compound 0.00316 µM, first compound 0.1 µM): 98.1% | viability, T/C (second compound 0.00316 µM, first compound 0.316 µM): 108% | viability, T/C (second compound 0.00316 µM, first compound 1 µM): 104% | viability, T/C (second compound 0.00316 µM, first compound 3.16 µM): 95.4% | viability, T/C (second compound 0.00316 µM, first compound 10 µM): 4.89% | viability, T/C (second compound 0.01 µM, first compound 0.0316 µM): 106% | viability, T/C (second compound 0.01 µM, first compound 0.1 µM): 98.7% | viability, T/C (second compound 0.01 µM, first compound 0.316 µM): 104% | viability, T/C (second compound 0.01 µM, first compound 1 µM): 101% | viability, T/C (second compound 0.01 µM, first compound 3.16 µM): 94.6% | viability, T/C (second compound 0.01 µM, first compound 10 µM): 3.83% | viability, T/C [5]: 96% | viability, T/C [6]: 94.9% | viability, T/C [7]: 96.2% | viability, T/C [8]: 90.4% | viability, T/C [9]: 78.6% | viability, T/C [10]: 3.08% | viability, T/C [11]: 82.5% | viability, T/C [12]: 76.6% | viability, T/C [13]: 76.8% | viability, T/C [14]: 81% | viability, T/C [15]: 54.5% | viability, T/C [16]: 1.89% | viability, T/C [17]: 53% | viability, T/C [18]: 51.6% | viability, T/C [19]: 51.4% | viability, T/C [20]: 48.6% | viability, T/C [21]: 36.4% | viability, T/C [22]: 2.15% | viability, T/C [23]: 25.9% | viability, T/C [24]: 25.6% | viability, T/C [25]: 21.4% | viability, T/C [26]: 25.6% | viability, T/C [27]: 19.8% | viability, T/C [28]: 2.71%

CC(C)NCC(C(=O)N1CCN(c2ncnc3c2C(C)CC3O)CC1)c1ccc(Cl)cc1 (stereo not given) + Cc1nc(NC(=O)N2CCCC2C(N)=O)sc1-c1ccnc(C(C)(C)C(F)(F)F)c1
IC50 [1]: 1380 nM | IC50 [2]: 1520 nM | IC50 [3]: 1090 nM | IC50 [4]: 1080 nM | IC50 (curve of first compound, second compound 3.16 µM): 1020 nM | IC50 (curve of first compound, second compound 10 µM): 631 nM | viability, T/C [5]: 96.2% | viability, T/C [6]: 102% | viability, T/C [7]: 85.4% | viability, T/C [8]: 56.2% | viability, T/C [9]: 34.5% | viability, T/C [10]: 27% | viability, T/C [11]: 97% | viability, T/C [12]: 87.4% | viability, T/C [13]: 94.3% | viability, T/C [14]: 60.2% | viability, T/C [15]: 30.7% | viability, T/C [16]: 17.6% | viability, T/C [17]: 96.8% | viability, T/C [18]: 93.9% | viability, T/C [19]: 68.5% | viability, T/C [20]: 51.5% | viability, T/C [21]: 34.2% | viability, T/C [22]: 18.1% | viability, T/C [23]: 87.9% | viability, T/C [24]: 96.7% | viability, T/C [25]: 76.8% | viability, T/C [26]: 50.6% | viability, T/C [27]: 29.6% | viability, T/C [28]: 16.7% | viability, T/C (second compound 3.16 µM, first compound 0.0316 µM): 72.3% | viability, T/C (second compound 3.16 µM, first compound 0.1 µM): 84% | viability, T/C (second compound 3.16 µM, first compound 0.316 µM): 73.9% | viability, T/C (second compound 3.16 µM, first compound 1 µM): 46.6% | viability, T/C (second compound 3.16 µM, first compound 3.16 µM): 29.7% | viability, T/C (second compound 3.16 µM, first compound 10 µM): 13.4% | viability, T/C (second compound 10 µM, first compound 0.0316 µM): 62.1% | viability, T/C (second compound 10 µM, first compound 0.1 µM): 56.8% | viability, T/C (second compound 10 µM, first compound 0.316 µM): 63.4% | viability, T/C (second compound 10 µM, first compound 1 µM): 42.4% | viability, T/C (second compound 10 µM, first compound 3.16 µM): 21.6% | viability, T/C (second compound 10 µM, first compound 10 µM): 11.9%
